The subject of the first assay is HBV rcDNA in HepDE19 cells. Put plainly: HepDE19 assay with bDNA quantitation of HBV rcDNA. To be noted: Hepatitis B virus, HepDE19, 168 h, inhibition of rcDNA formation in HepDE19 cells (HepG2 derived), Tet-free medium, 7 day incubation, Quantigene 2.0 bDNA readout, top concentration 25 μM; read-out: DE-19bDNA EC50. The format is cell-based, hepatitis B virus (HBV). The procedure: HepDE19 Assay with bDNA Quantitation of HBV rcDNA:
HepDE19 cell culture system is a HepG2 (human hepatocarcinoma) derived cell line that supports HBV DNA replication and cccDNA formation in a tetracycline (Tet)-regulated manner and produces HBV rcDNA and a detectable reporter molecule dependent on the production and maintenance of cccDNA (Guo, et al., 2007, J. Virol. 81:12472-12484).
HepDE19 (50,000 cells/well) were plated in 96-well collagen-coated tissue-culture treated microtiter plates in DMEM/F12 medium supplemented with 10% fetal bovine serum, 1% penicillin-streptomycin and 1 μg/mL tetracycline and incubated in a humidified incubator at 37° C. and 5% CO2 overnight. Next day, the cells were switched to fresh medium without tetracycline and incubated for 4 hours at 37° C. and 5% CO2. The cells were treated with fresh Tet-free medium with compounds at concentrations starting at 25 μM and a serial, […], 8-point, titration series in duplicate. The final DMSO concentration in the assay was 0.5%. The plates were incubated for 7 days in a humidified incubator at 37° C. and 5% CO2. Following a 7 day-incubation, the level of rcDNA present in the inhibitor-treated wells was measured using a Quantigene 2.0 bDNA assay kit (Affymetrix, Santa Clara, Calif.) with HBV specific custom probe set and manufacturers instructions. Concurrently, the effect of compounds on cell viability was assessed using replicate plates, plated at a density of 5,000 cells/well and incubated for 4 days, to determine the ATP content as a measure of cell viability using the cell-titer glo reagent (CTG; Promega Corporation, Madison, Wis.) as per manufacturer's instructions. The plates were read using a Victor luminescence plate reader (PerkinElmer Model 1420 Multilabel counter) and the relative luminescence units (RLU) data generated from each well was calculated as % inhibition of the untreated control wells and analyzed using XL-Fit module in Microsoft Excel to determine EC50 and EC90 (bDNA) and CC50 (CTG) values using a 4-parameter curve fitting algorithm.
Representative compounds of the disclosure were tested for their abilities to inhibit formation of relaxed circular DNA (rcDNA) in a HepDE19 assay, as described elsewhere herein.
Take `COc1nc2c(c3ccccc13)C(N(C)C(=O)Nc1ccc(F)c(Cl)c1)CCC2` (centres unmarked) [Compound 34, 3-(3-Chloro-4-fluorophenyl)-1-(6-methoxy-1,2,3,4-tetrahydrophenanthridin-1-yl)-1-methylurea]: the EC50 was 1.8 µM.

Regarding `CCN(C(=O)Nc1ccc(F)c(C#N)c1)C1COCc2[nH]c(=O)c3cc(Cl)ccc3c21` (centres unmarked) [Compound 66, 1-(8-Chloro-6-oxo-1,4,5,6-tetrahydro-2H-pyrano[3,4-c]isoquinolin-1-yl)-3-(3-cyano-4-fluorophenyl)-1-ethylurea], the EC50 came out at 0.05 µM.

As to `CN(C(=O)Nc1ccc(F)c(Cl)c1)C1CS(=O)(=O)Cc2[nH]c(=O)c3cc(F)c(F)cc3c21` (single isomer, unassigned) [Compound 203, 3-(3-Chloro-4-fluorophenyl)-1-(8,9-difluoro-3,3-dioxido-6-oxo-1,4,5,6-tetrahydro-2H-thiopyrano[3,4-c]isoquinolin-1-yl)-1-methylurea], the EC50 is 1.4 µM.

Regarding `CN(C(=O)Nc1ccc(F)c(Cl)c1)C1COCc2[nH]c(=O)c3cc(F)cc(F)c3c21` (centres unmarked) [Compound 25, 3-(3-Chloro-4-fluorophenyl)-1-(8,10-difluoro-6-oxo-1,4,5,6-tetrahydro-2H-pyrano[3,4-c]isoquinolin-1-yl)-1-methylurea], the EC50 is 0.29 µM.

For `CN(C(=O)Nc1ccc(F)c(Cl)c1)C1CCCc2[nH]c(=O)c3cc(F)cc(F)c3c21` (centres unmarked) [Compound 20, 3-(3-Chloro-4-fluorophenyl)-1-(8,10-difluoro-6-oxo-1,2,3,4,5,6-hexahydrophenanthridin-1-yl)-1-methylurea], the EC50 was determined as 0.51 µM.

Regarding `CN(C(=O)Nc1ccc(F)c(C(F)F)c1)C1COCc2nc(NCCN)c3cc(F)c(F)cc3c21` (racemic) [Compound 239, 1-(6-((2-Aminoethyl)amino)-8,9-difluoro-1,4-dihydro-2H-pyrano[3,4-c]isoquinolin-1-yl)-3-(3-(difluoromethyl)-4-fluorophenyl)-1-methylurea], the EC50 amounted to 0.3 µM.

As to `CCN(C(=O)Nc1ccc(F)c(Cl)c1)C1COCc2[nH]c(=O)c3cc(C#N)ccc3c21` (centres unmarked) [Compound 90, 3-(3-Chloro-4-fluorophenyl)-1-(8-cyano-6-oxo-1,4,5,6-tetrahydro-2H-pyrano[3,4-c]isoquinolin-1-yl)-1-ethylurea], the EC50 turned out to be 0.36 µM.

As for `O=C(Nc1ccc(F)c(Cl)c1)N(CCCO)C1CCc2[nH]c(=O)c3ccccc3c21` (centres unmarked) [Compound 14, 3-(3-Chloro-4-fluorophenyl)-1-(3-hydroxypropyl)-1-(5-oxo-2,3,4,5-tetrahydro-1H-cyclopenta[c]isoquinolin-1-yl)urea], the EC50 was 0.1 µM.

On to `CN(C(=O)Nc1ccc(F)c(Cl)c1)C1CCCc2[nH]c(=O)c3cc(F)c(F)cc3c21` (racemic) [Compound 15, 3-(3-Chloro-4-fluorophenyl)-1-(8,9-difluoro-6-oxo-1,2,3,4,5,6-hexahydrophenanthridin-1-yl)-1-methylurea], for which the EC50 is 0.02 µM.

`CN(C(=O)Nc1ccc(F)c(C(F)F)c1)[C@@H]1COCc2nc(OCCO)c3cc(F)c(F)cc3c21` [Compound 256, (S)-1-(8,9-Difluoro-6-(2-hydroxyethoxy)-1,4-dihydro-2H-pyrano[3,4-c]isoquinolin-1-yl)-3-(3-(difluoromethyl)-4-fluorophenyl)-1-methylurea]: the EC50 came to 0.019 µM.

Take `CN(C(=O)Nc1ccc(F)c(Cl)c1)C1CCCCc2[nH]c(=O)c3ccccc3c21` (centres unmarked) [Compound 21, 3-(3-Chloro-4-fluorophenyl)-1-methyl-1-(5-oxo-6,7,8,9,10,11-hexahydro-5H-cyclohepta[c]isoquinolin-11-yl)urea]: the EC50 stood at 0.15 µM.

Staying with this assay, now noted: Hepatitis B virus, HepDE19, 168 h, read-out: DE-19bDNA EC50 (uM), inhibition of rcDNA formation in HepDE19 cells (HepG2 derived), Tet-free medium, 7 day incubation, Quantigene 2.0 bDNA readout, top concentration 25 μM.
As for `[2H]C([2H])([2H])N(C(=O)Nc1ccc(F)c(Cl)c1)[C@]1([2H])COCc2[nH]c(=O)c3cc(F)c(F)cc3c21` (single isomer, unassigned) [Compound 146], the EC50 came out at 0.01 µM.

The same assay, now with this note: inhibition of rcDNA formation in HepDE19 cells (HepG2 derived), Tet-free medium, 7 day incubation, Quantigene 2.0 bDNA readout, top concentration 25 μM; read-out: DE-19bDNA EC50.
Turning to `CNc1nc2c(c3cc(F)c(F)cc13)C(N(C)C(=O)Nc1ccc(F)c(Cl)c1)COC2` (single isomer, unassigned) [Compound 242, 3-(3-Chloro-4-fluorophenyl)-1-(8,9-difluoro-6-(methylamino)-1,4-dihydro-2H-pyrano[3,4-c]isoquinolin-1-yl)-1-methylurea], the EC50 amounted to 0.02 µM.

As to `CN(C(=O)Nc1ccc(F)c(Cl)c1)C1CN(CCO)Cc2[nH]c(=O)c3cc(F)ccc3c21` (single isomer, unassigned) [Compound 170, 3-(3-Chloro-4-fluorophenyl)-1-(8-fluoro-3-(2-hydroxyethyl)-6-oxo-1,2,3,4,5,6-hexahydrobenzo[c][1,7]naphthyridin-1-yl)-1-methylurea], the EC50 came out at 3.1 µM.

As to `CN(C(=O)Nc1ccc(F)c(Cl)c1)C1CSCc2[nH]c(=O)c3cc(F)ccc3c21` (single isomer, unassigned) [Compound 184, 3-(3-Chloro-4-fluorophenyl)-1-(8-fluoro-6-oxo-1,4,5,6-tetrahydro-2H-thiopyrano[3,4-c]isoquinoIin-1-yl)-1-methylurea], the EC50 worked out at 0.03 µM.

For `CN(C(=O)Nc1ccc(F)c(Cl)c1)C1CN(CCO)Cc2[nH]c(=O)c3cc(F)c(F)cc3c21` (single isomer, unassigned) [Compound 180, 3-(3-Chloro-4-fluorophenyl)-1-(8,9-difluoro-3-(2-hydroxyethyl)-6-oxo-1,2,3,4,5,6-hexahydrobenzo[c][1,7]naphthyridin-1-yl)-1-methylurea], the EC50 was 1.4 µM.

For `CN(C(=O)Nc1cc(F)c(F)c(F)c1)C1COCc2[nH]c(=O)c3cc(F)c(F)cc3c21` (single isomer, unassigned) [Compound 133, 1-(8,9-Difluoro-6-oxo-1,4,5,6-tetrahydro-2H-pyrano[3,4-c]isoquinolin-1-yl)-1-methyl-3-(3,4,5-trifluorophenyl)urea], the EC50 was found to be 0.02 µM.

Regarding `CC(C)(O)CN(C(=O)Nc1ccc(F)c(Cl)c1)C1COCc2[nH]c(=O)c3cc(F)ccc3c21` (single isomer, unassigned) [Compound 111, 3-(3-Chloro-4-fluorophenyl)-1-(8-fluoro-6-oxo-1,4,5,6-tetrahydro-2H-pyrano[3,4-c]isoquinolin-1-yl)-1-(2-hydroxy-2-methylpropyl)urea], the EC50 stood at 0.2 µM.

Turning to `CN(C(=O)N1Cc2ccccc2C1)C1CNCc2[nH]c(=O)c3cc(F)c(F)cc3c21` (single isomer, unassigned) [Compound 223, N-(8,9-Difluoro-6-oxo-1,2,3,4,5,6-hexahydrobenzo[c][1,7]naphthyridin-1-yl)-N-methylisoindoline-2-carboxamide], the EC50 was determined as 2.3 µM.

In the case of `CN(C(=O)N1Cc2ccc(F)cc2C1)C1CNCc2[nH]c(=O)c3cc(F)c(F)cc3c21` (single isomer, unassigned) [Compound 224, N-(8,9-Difluoro-6-oxo-1,2,3,4,5,6-hexahydrobenzo[c][1,7]naphthyridin-1-yl)-5-fluoro-N-methylisoindoline-2-carboxamide], the EC50 is at least 25 µM.

In the case of `O=C(Nc1ccc(F)c(Cl)c1)N(CCCO)C1COCc2[nH]c(=O)c3cc(F)ccc3c21` (single isomer, unassigned) [Compound 110, 3-(3-Chloro-4-fluorophenyl)-1-(8-fluoro-6-oxo-1,4,5,6-tetrahydro-2H-pyrano[3,4-c]isoquinolin-1-yl)-1-(3-hydroxypropyl)urea], the EC50 is 0.02 µM.

For the compound `CC(C)(O)CN(C(=O)Nc1ccc(F)c(Cl)c1)C1COCc2[nH]c(=O)c3cc(F)ccc3c21` (single isomer, unassigned) [Compound 112, 3-(3-Chloro-4-fluorophenyl)-1-(8-fluoro-6-oxo-1,4,5,6-tetrahydro-2H-pyrano[3,4-c]isoquinolin-1-yl)-1-(2-hydroxy-2-methylpropyl)urea], the EC50 turned out to be 1.9 µM.

Take `CN(C(=O)Nc1ccc(F)cc1)C1COCc2[nH]c(=O)c3cc(F)c(F)cc3c21` (single isomer, unassigned) [Compound 103, 1-(8,9-Difluoro-6-oxo-1,4,5,6-tetrahydro-2H-pyrano[3,4-c]isoquinolin-1-yl)-3-(4-fluorophenyl)-1-methylurea]: the EC50 was 5.3 µM.
